Consider eight compounds from patent US20060241099A1 (Pliva-Istrazivacki Institut d.o.o., priority 2003, published 2006).

One assay has as its target T1, 5-HT2A receptor (Homo sapiens, UniProt P28223).
T1 construct: expressed in transfected cells; host or cells: CHO-K1 (or human cortex tissue)
Put plainly: radioligand binding assay for 5-HT2A receptor ([3H]-ketanserin). To be noted: human cortex or recombinant 5-HT2A receptor expressed in CHO-K1 cells; for IC50: read-out: binding affinity to 5-HT2A serotonin receptor expressed as IC50 value; for Ki: read-out: binding affinity to 5-HT2A serotonin receptor, Ki value. As to the method: (§1) The effect of the compounds of the present invention on the neurochemical steady state was determined by in vitro investigations such as a radionuclide-marked radioligand binding assay for 5-HT2A (Bonhaus D. W. Br. J. Pharmacol. 1995, 115:622; Saucier C. J. Neurochem. 1997, 68:1998) and 5-HT2C receptors (Wolf W. A. J. Neurochem. 1997, 69:1449), in vitro binding assay for al receptor (Thomson W. and Donn R. Arthritis Res. 2002, 4: 302-306) and by in vivo investigations in a tail suspension test (Vogel H. G. and Vogel W. H. Drug Discovery and Evaluation Pharmacological Assays, Springer 1997, 304), in amphethamine-induced hyperlocomotion in mice (Millan M. J. et al, 1998 J Pharmacol. Exp. Ther. 287: 167-186) in a forced swim test in mice (Porsolt R. D. et al. Arch. Int. Pharmacodyn. 1977, 229:327-336), in meta-chlorophenyl piperazine (m-CPP) test on rats (Drug Dev. Res. 1989, 18:119-144) and in apomorphine, tryptamine, norepinephrine (ATN) test in rats (Arch. Int. Pharmacodyn. 1977, 227:238-253).
(§2) A small concentration of a radioligand having a great affinity for binding to a receptor was incubated with a tissue sample enriched with a certain receptor (1-5 mg of tissue) in a buffered medium (0.2-5 μL). Recombinant human HT2A and HT2C receptors were expressed in CHO-K1 or COS-7 cells and were also used for competitive binding. During incubation the radioligand bound to the receptor. When a binding balance was achieved, the receptors to which the radioligand was bound were separated from those to which said ligand was not bound, and the radioactivity of the receptor/radioligand complex was measured. The interaction of the tested compounds with receptors was tested in competitive binding experiments. Various concentrations of tested compounds were added to the incubation mixture containing a prepared tissue enriched with corresponding receptors and the radioligand. The radioligand binding was inhibited by the test compounds proportionally to the affinity of a certain compound for the receptor and to the concentration of the compound.
The radioligand used for the determination of binding to 5-HT2A receptor was [^3H]-ketanserin and the tissue used was human cortex or recombinant 5-HT2A receptor expressed in CHO-K1 cells.

A further assay addresses T2, 5-HT2C receptor (Homo sapiens, UniProt P28335).
T2 construct: expressed in transfected cells; host or cells: CHO-K1 (or choroid plexus tissue)
T2 sequence (P28335 33-458): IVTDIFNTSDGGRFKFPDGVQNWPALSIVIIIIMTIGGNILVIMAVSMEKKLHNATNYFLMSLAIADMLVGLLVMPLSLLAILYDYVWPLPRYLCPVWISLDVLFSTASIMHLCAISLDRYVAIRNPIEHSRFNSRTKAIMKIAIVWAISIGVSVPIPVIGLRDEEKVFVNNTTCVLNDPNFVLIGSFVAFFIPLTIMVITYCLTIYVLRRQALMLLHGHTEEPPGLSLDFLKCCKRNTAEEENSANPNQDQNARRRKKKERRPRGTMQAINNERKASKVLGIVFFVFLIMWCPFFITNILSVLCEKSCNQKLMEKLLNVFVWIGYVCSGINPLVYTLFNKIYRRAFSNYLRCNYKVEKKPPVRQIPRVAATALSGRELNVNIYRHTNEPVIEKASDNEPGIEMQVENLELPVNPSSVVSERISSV
Put plainly: radioligand binding assay for 5-HT2C receptor ([3H]-mesulergine). To be noted: choroid plexus or recombinant 5-HT2C receptor expressed in CHO-K1 cells; for IC50: read-out: binding affinity to 5-HT2C serotonin receptor expressed as IC50 value; for Ki: read-out: binding affinity to 5-HT2C serotonin receptor, Ki value. As to the method:
as §1, §2
The radioligand used for the determination of binding to 5-HT2C receptor was [^3H]-mesulergine and the tissue used was choroid plexus or recombinant 5-HT2C receptor expressed in CHO-K1 cells.

The next assay concerns the target T3, σ1 receptor (Homo sapiens, UniProt Q99720).
T3 construct: endogenous in cells; host or cells: Jurkat cell membranes
Put plainly: in vitro binding affinity to σ1 receptor, Jurkat cell membranes, [3H]haloperidol. To be noted: for IC50: read-out: binding affinity to σ1 receptor expressed as IC50 value. As to the method:
as §1
Jurkat cell were grown in medium, RPMI supplemented with 10% fetal bovine serum, 100 U/ml penicillin and 100 μg/ml streptomycin, collected and their suspension homogenized. After centrifugation, the membrane fraction was separated, resuspended in phosphate buffer (pH=7.5) and stored in small aliquots in liquid nitrogen until use. Binding of different radiolabeled ligands to Jurkat cell membranes was measured as described previously (Ramamoorthy et al., 1995). To characterize the σ binding sites in the Jurkat cell line, [^3H]haloperidol was first used as the ligand. Haloperidol is a high affinity ligand to both type 1 and type 2 σ-receptors. The binding assays were done using Jurkat cell membranes in the presence of [^3H]haloperidol ([…]) alone to determine the total binding, and in the presence of [^3H]haloperidol (10 nM) and unlabeled haloperidol (10 μM) to determine the nonspecific binding. Membranes were incubated with ligands in phosphate buffer for 3 hours at room temperature. After the filter had been washed, radioactivity associated with the filter was determined by liquid scintillation spectrometry.

Another assay deals with mice. Put plainly: amphetamine-induced hyperlocomotion in mice. To be noted: male Swiss OFA mice, per os in saline, test doses of 1 mg/kg and 0,1 mg/kg, dexamphetamine sulphate 2 mg/kg i.p. The class given is in vivo. The protocol:
Male Swiss OFA mice of a weight 30-35 g were treated with either vehicle (saline) or test compounds 30 minutes prior to hyperlocomotion induction. Dexamphetamine sulphate was administered intraperitoneally at 2 mg/kg. Thirty minutes later, animals were placed in a wooden box 80×80 cm^2 in a room with low light intensity (100 lux) for locomotor activity recording. Locomotor activity was determined during a 30 min period using a video image analyzer. Total duration of movement, occurence of movement and total distance travelled were measured. Haloperidol was tested at the dose of 0,25 mg/kg (prepared in 0.5% methylcellulose) and served as reference substance.
Compounds were considered as active if in a dose of 10 mg/kg reduced amphetamine-induced hyperlocomotion in experimental animals for 30% and more when compared to vehicle treated control group.

T3 sequence (Q99720 whole entry): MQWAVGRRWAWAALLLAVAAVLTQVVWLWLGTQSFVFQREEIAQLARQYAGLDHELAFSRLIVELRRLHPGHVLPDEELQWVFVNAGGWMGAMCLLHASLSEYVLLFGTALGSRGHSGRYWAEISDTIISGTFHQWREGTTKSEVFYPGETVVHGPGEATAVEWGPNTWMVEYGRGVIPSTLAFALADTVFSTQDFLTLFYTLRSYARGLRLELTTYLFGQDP
T1 sequence (P28223 whole entry): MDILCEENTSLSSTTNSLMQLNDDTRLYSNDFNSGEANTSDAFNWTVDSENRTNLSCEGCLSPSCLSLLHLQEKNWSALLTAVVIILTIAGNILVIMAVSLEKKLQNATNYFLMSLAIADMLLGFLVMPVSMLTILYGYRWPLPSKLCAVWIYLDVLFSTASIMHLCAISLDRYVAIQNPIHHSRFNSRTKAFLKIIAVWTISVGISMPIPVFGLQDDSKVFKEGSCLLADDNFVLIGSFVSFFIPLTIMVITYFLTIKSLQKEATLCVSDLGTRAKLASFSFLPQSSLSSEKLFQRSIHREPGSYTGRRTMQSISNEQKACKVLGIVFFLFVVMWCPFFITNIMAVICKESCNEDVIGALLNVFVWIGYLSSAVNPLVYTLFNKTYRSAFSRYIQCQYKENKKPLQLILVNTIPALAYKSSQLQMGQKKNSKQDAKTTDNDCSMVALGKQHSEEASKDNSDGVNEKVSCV

Broadly, the IC50 is the midpoint of a concentration-inhibition curve. What is called Ki is the equilibrium dissociation constant of an inhibitor or competing ligand from its target. With `CN(C)CCOCc1scc2c1-c1ccccc1Sc1ccccc1-2` [[2-(2,8-dithia-dibenzo[e,h]azulen-1-ylmethoxy)-ethyl]-dimethyl-amine], the half-inhibitory concentration (IC50) at 5-HT2A receptor, at 5-HT2C receptor and on σ1 receptor was less than 200 nM each time. Also, the inhibition constant Ki on 5-HT2A receptor, at 5-HT2C receptor and at σ1 receptor was less than 100 nM each time.
As to `CN(C)CCCOCc1scc2c1-c1ccccc1Oc1ccccc1-2` [dimethyl-[3-(8-oxa-2-thia-dibenzo[e,h]azulen-1-ylmethoxy)-propyl]-amine], at 5-HT2A receptor, the half-maximal inhibitory concentration (IC50) was less than 200 nM and the Ki was less than 100 nM. Also, at 5-HT2C receptor, the IC50 is less than 200 nM and the Ki was less than 100 nM.
Turning to `CN(C)CCOCc1scc2c1-c1ccccc1Oc1ccccc1-2` [dimethyl-[2-(8-oxa-2-thia-dibenzo[e,h]azulen-1-ylmethoxy)-ethyl]-amine], the 50% inhibitory concentration (IC50) on 5-HT2A receptor, at 5-HT2C receptor and on σ1 receptor was less than 200 nM in each case. In addition, the Ki on 5-HT2A receptor, on 5-HT2C receptor and at σ1 receptor was less than 100 nM in each case.
Turning to `NCCCOCc1scc2c1-c1ccccc1Oc1ccccc1-2` [3-(8-oxa-2-thia-dibenzo[e,h]azulen-1-ylmethoxy)-propylamine], the 50% inhibitory concentration (IC50) on 5-HT2A receptor and on 5-HT2C receptor was less than 200 nM throughout. Further, the Ki at 5-HT2A receptor and at 5-HT2C receptor was less than 100 nM each time.
With `CN(C)CCOCc1scc2c1-c1ccccc1Oc1ccc(Cl)cc1-2` [[2-(5-chloro-8-oxa-2-thia-dibenzo[e,h]azulen-1-ylmethoxy)-ethyl]-dimethyl-amine], the IC50 at 5-HT2A receptor, at 5-HT2C receptor and on σ1 receptor was less than 200 nM throughout. For the same compound, the Ki at 5-HT2A receptor, at 5-HT2C receptor and on σ1 receptor was less than 100 nM each time.
In the case of `NCCCOCc1scc2c1-c1cc(Cl)ccc1Oc1ccccc1-2`, the IC50 at 5-HT2A receptor and at 5-HT2C receptor was less than 200 nM each time. The inhibition constant Ki at 5-HT2A receptor and on 5-HT2C receptor was less than 100 nM each time.
As for `CN(C)CCCOCc1scc2c1-c1ccccc1Sc1ccccc1-2` [[3-(2,8-dithia-dibenzo[e,h]azulen-1-ylmethoxy)-propyl]-dimethyl-amine], the half-maximal inhibitory concentration (IC50) at 5-HT2A receptor, at 5-HT2C receptor and on σ1 receptor was less than 200 nM throughout. Moreover, the Ki on 5-HT2A receptor, on 5-HT2C receptor and on σ1 receptor was less than 100 nM throughout.
On to “[2-(2,8-dithia-dibenzo[e,h]azulen-1-ylmethoxy)-ethyl]-dimethyl-ammonium citrate”, for which the “inhibition of amphetamine-induced hyperlocomotion” value with mice was 40-60%.
